These results are taken from patent publication US20140314819A1, “COMPOSITIONS AND METHODS FOR TREATING DENTAL CONDITIONS” (HILL'S PET NUTRITION, INC., priority 2011, published 2014).

Each structure is given as a SMILES string.

Assay [1] relates to oral substrate accumulation (dental plaque, calculus, and tooth stain). Description: 28 day feeding study in dogs: oral substrate accumulation by Logan-Boyce quantification. The settings on record: dog food comprising 1.5% lactic acid fed to dogs for one month. The format is in vivo, beagle dogs. The procedure:
Plaque is measured by applying a disclosing solution (2% aqueous eosin) to the animal's teeth. The teeth to be scored are divided into gingival and occlusal halves, and each half is assigned a separate numerical score for plaque coverage (percentage of the tooth area stained) and thickness (intensity of staining) The score for each tooth half is calculated by multiplying the coverage and thickness scores. The gingival and occlusal scores are then added together for a tooth score. The sum of the teeth scores is identified as the total tooth score, and the whole mouth mean score is calculated by averaging the total teeth scores for each animal. The plaque scoring method gives a number of 0-4 by the percentage of plaque coverage with 0=no plaque detected, 1=1-24% coverage, 2=25-49% coverage, 3=50-74% coverage and 4=75-100% coverage. […] The whole mouth score is calculated by adding the teeth scores and dividing by the number of teeth scored. Calculus is measured by air-drying the teeth to be scored, dividing those teeth vertically into mesial, buccal, and distal thirds, and assigning each third a numerical score based on the percentage of calculus coverage with 0=no calculus detected, 1=1-24% coverage, 2=25-49% coverage, 3=50-74% coverage, and 4=75-100% coverage. […] The whole mouth score is calculated by adding the teeth scores and dividing by the number of teeth scored. […]

Assay [2] has the same test system. Description: Twelve month feeding study in cats: oral substrate accumulation by Logan-Boyce quantification. The format is in vivo, domestic cats. The note with it: composition comprising 1.2% lactic acid fed to cats for six months. From the text:
This study was designed to assess the effect of lactic acid on oral substrate accumulation (dental plaque, calculus, and tooth stain) in cats. Initially, all cats received a professional dental prophylaxis at this baseline using standard, well-established procedures. Six and twelve months later, dental substrate accumulation (dental plaque, calculus, and tooth stain) was quantified using the Logan-Boyce quantification method (See Logan E I, Boyce. Oral health assessment in dogs: parameters and methods. J. Vet Dent; 11(2):58-63.) Plaque is measured by applying a disclosing solution (2% aqueous eosin) to the animal's teeth. The teeth to be scored are divided into gingival and occlusal halves, and each half is assigned a separate numerical score for plaque coverage (percentage of the tooth area stained) and thickness (intensity of staining) The score for each tooth half is calculated by multiplying the coverage and thickness scores. The gingival and occlusal scores are then added together for a tooth score. The sum of the teeth scores is identified as the total tooth score, and the whole mouth mean score is calculated by averaging the total teeth scores for each animal. The plaque scoring method gives a number of 0-4 by the percentage of plaque coverage with 0=no plaque detected, 1=1-24% coverage, 2=25-49% coverage, 3=50-74% coverage and 4=75-100% coverage. […]

Turning to `CC(O)C(=O)O` (centres unmarked) [lactic acid], in assay [1], the “Effect on tooth calculus and stain (in words)” value is “inhibits tooth calculus and stain”. Moreover, the “Effect on formation of dental plaque, calculus and stain (in words)” value in assay [2] was “inhibits formation of dental plaque, calculus and stain”.
